Experimental findings from patent US20220354957A1, “PEPTIDES TARGETING MACROPHAGES, AND CONJUGATES, COMPOSITIONS, AND USES THEREOF” (Twinpig Biolab, Inc., priority 2021, published 2022) are described below.

What all share (format): cell-based, human
The subject of one data set is LPS-M1 macrophages. The data set is described as follows: Expression of pro-inflammatory genes in in vitro sepsis model (real-time quantitative PCR). The settings on record: 1.5 μM for 1 h, compared to LPS-M1 macrophages. The procedure:
THP-1 cells (2×10^5 cells/well) were differentiated into macrophages with 100 nM PMA (MO) for 24h and polarized into classical M1 macrophages by treatment of IFN-γ (20 ng/ml) and LPS (100 ng/ml) and LPS-M1 macrophages were induced by LPS (1 m/ml) treatment for 2 h. Polarized cells were treated with 1.5 μM of A26K for 1 hour and further incubated in RPMI1640 growth medium for 24 hours. Expression levels of pro-inflammatory genes (IL-8, TNF-α, NF-kB, IL-1(3 and CXCL10) were quantified by real-time quantitative PCR.

The next data set deals with M1 macrophages. The data set can be described thus: Cell viability test (CCK-8) of dKLA-conjugated alanine-substituted peptides. The settings on record: 1.5 μM, 1 hour then 24 hours, CCK-8, compared to control M1 macrophage. The protocol: (§1) THP-1 monocytes were differentiated into macrophages (M0) by 24 h incubation with 100 nM phorbol 12-myristate 13-acetate (PMA, Sigma) followed by 24 h incubation in RPMI medium (Invitrogen). Macrophages were polarized in M1 macrophages (M1) by incubation with 20 ng/ml of IFN-γ (Prospec) and 100ng/m1 of LPS (Sigma). Macrophage M2 polarization(M2) was obtained by incubation with 20 ng/ml of interleukin (IL) 4 (Prospec) and 20 ng/ml of interleukin 13 (Pro spec).
(§2) Polarized cells were treated with 1.5 μM MpepK, A12K, A14K, A17K, A18K, A22K, A25K or A26K peptides for 1 hour and further incubated in RPMI1640 growth medium for 24 hours. Cell viability was analyzed using the CCK-8 assay: CCK-8 reagent (Enzo Life Sciences) was added to each well; incubation was continued for 2 hours, and absorbance was measured at 450 nm with a microplate reader (Molecular Devices).
(§3) THP-1 cells (1×10^4 cells/well) were differentiated into macrophages with 100 nM PMA (MO) for 24 h and polarized into classical M1 macrophages by treatment of IFN-γ (20 ng/ml) and LPS (100 ng/ml) and LPS-stimulated macrophages (LPS-M1) were induced by LPS (1 m/ml) treatment for 24h. Cells were treated with 1.5 μM of A26K for 1 hour and further incubated in RPMI1640 growth medium for 24 hours. Cell viability was analyzed using the CCK-8 assay. CCK-8 reagent was added to each well and incubated for 1.5-2 hours. Absorbance was measured at 450 nm with a microplate reader.

Assay in data set [1]: as above
The procedure:
as §1, §2, §3

Data set [2] is described as follows: Cytotoxicity in in vitro sepsis model (CCK-8). The settings on record: compared to control, read-out: inhibition (cytotoxic effect) in LPS-M1 macrophages. The procedure: as §3

For `CC[C@H](C)[C@H](NC(=O)[C@H](CC(C)C)NC(=O)[C@H](C)NC(=O)[C@@H]1CCCN1C(=O)[C@H](CC(C)C)NC(=O)CNC(=O)[C@@H](NC(=O)[C@@H](NC(=O)[C@H](CC(C)C)NC(=O)[C@@H](NC(C)=O)C(C)C)[C@@H](C)O)[C@@H](C)O)C(=O)N[C@@H](CO)C(=O)N[C@@H](Cc1c[nH]c2ccccc12)C(=O)N[C@H](C(=O)N[C@@H](CCCCN)C(=O)N[C@@H](CCCNC(=N)N)C(=O)N[C@@H](CCCCN)C(=O)N[C@@H](CCCNC(=N)N)C(=O)N[C@@H](CCC(N)=O)C(=O)N[C@@H](C)C(=O)NCC(=O)NCC(=O)NCC(=O)NCC(=O)N[C@@H](CO)C(=O)N[C@H](CCCCN)C(=O)N[C@H](CC(C)C)C(=O)N[C@H](C)C(=O)N[C@H](CCCCN)C(=O)N[C@H](CC(C)C)C(=O)N[C@H](C)C(=O)N[C@H](CCCCN)C(=O)N[C@H](CCCCN)C(=O)N[C@H](CC(C)C)C(=O)N[C@H](C)C(=O)N[C@H](CCCCN)C(=O)N[C@H](CC(C)C)C(=O)N[C@H](C)C(=O)N[C@H](CCCCN)C(=O)O)[C@@H](C)CC` [A26K], in the data set with LPS-M1 macrophages, the “expression levels of IL8, TNF-α, IL-1β, NF-kB and CXCL10 enhanced by LPS stimulation” value was “significantly inhibited”. Also, in the data set on M1 macrophages, the “cytotoxic effect in M1 macrophages” value was “great significant selective cytotoxic effect”. For the same compound, the cytotoxicity in data set [1] (1.5 μM, compared to control, read-out: inhibition of viability in M1 macrophages) turned out to be 53%. For the same compound, in data set [1] (0.01-10 μM, read-out: cytotoxicity IC50 in M1 macrophages), the IC50 (commonly the point on the concentration scale where inhibition reaches its midpoint) was 1190 nM. In data set [2], the inhibition – broadly, the relative decrease from the control value, in per cent – at 1.5 µM was determined as 37%.
